Results from paper PMC12276006, “Structural basis for sensitivity and acquired resistance of fungal cap guanine-N7 methyltransferases to the antifungal antibiotic sinefungin” (Nucleic Acids Research, 2025).
Values joined by “and” are separate entries in the source; they are usually repeats but may differ in a detail not shown here. Identical values can stand only once. Like-named read-outs stand apart in the source and are kept apart here.

Key:
[1] = target: T1, ScAbd1-Y416A (Saccharomyces cerevisiae, UniProt P32783, Y416A); assay: Inhibition of GpppA methylation by ScAbd1-Y416A; format: biochemical; conditions: ScAbd1-Y416A 250 nM, 100 μM SAM, 250 μM GpppA, 30°C, 20 min
T1 construct: aa 1–436); made in house; host or cells: Escherichia coli BL21 (DE3) CodonPlus RIL
T1 sequence (P32783 whole entry Y416A, the tested form may be a part): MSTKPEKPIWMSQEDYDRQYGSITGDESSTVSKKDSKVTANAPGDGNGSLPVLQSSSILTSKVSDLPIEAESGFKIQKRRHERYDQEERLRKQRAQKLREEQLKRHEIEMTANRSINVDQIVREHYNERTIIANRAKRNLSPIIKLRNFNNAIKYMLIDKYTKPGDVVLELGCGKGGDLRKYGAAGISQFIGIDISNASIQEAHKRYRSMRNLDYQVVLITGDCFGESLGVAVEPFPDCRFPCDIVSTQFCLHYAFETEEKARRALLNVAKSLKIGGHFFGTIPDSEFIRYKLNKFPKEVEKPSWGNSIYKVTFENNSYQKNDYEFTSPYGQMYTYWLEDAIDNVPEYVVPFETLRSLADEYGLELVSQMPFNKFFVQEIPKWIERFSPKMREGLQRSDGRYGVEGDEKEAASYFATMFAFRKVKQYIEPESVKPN
Experimental: (§1) Reactions (50 μl) were performed in triplicate by incubating 250 nM cap methyltransferases with 100 μM SAM and 250 μM GpppA or 2 mM GTP at 30°C in a buffer consisting of 200 mM NaCl, 50 mM Tris–HCl (pH 8.2), and 5 mM βME. Samples (10 μl aliquots) were withdrawn at specified time points (KlAbd1s: 0, 2, 5, 10, and 15 min, Fig. 1A; ScAbd1s: 0, 5, 10, 15, and 20 min, Fig. 4A) and quenched with 10 μl of 100 mM H2SO4 and 50 μM L-tryptophan, and then stored at −80°C pending liquid chromatography-tandem mass spectrometry (LC–MS/MS) analyses.
(§2) The quenched samples were thawed and centrifuged at 4000 × g at 4°C for 30 min to pellet denatured protein and the supernatants were transferred to a 96-well plate for analysis. Methylation was measured via HPLC with detection by MS conducted on an Agilent 1200 HPLC system coupled with a 6490 QQQ (Agilent Technologies). […] Samples were analyzed by the QQQ using multiple reaction monitoring (MRM) in negative mode, which measures peak intensities of the product ions of m^7GpppA (785: 408, 620 m/z) or m^7GTP (536.0: 159.0, 371.0 m/z) and the internal standard, L-tryptophan (203: 116, 141.9 m/z). […] ISTDs obtained from reaction samples quenched at specified time points were then used to interpolate either m^7GpppA or m^7GTP concentrations using the calibration curves and used for quantification. […]

[2] = target: T2, KlAbd1 (K. lactis cap methyltransferase Abd1, wild-type) (Kluyveromyces lactis, UniProt Q6CKI0); assay: Inhibition of GpppA methylation by KlAbd1 (LC-MS/MS assay); format: biochemical; conditions: for IC50: wild-type KlAbd1 250 nM, 100 μM SAM, 250 μM GpppA, 30°C, 10 min
T2 construct: aa 1–426); His10-Smt3 (N, cleaved yes); made in house; host or cells: Escherichia coli BL21 (DE3) CodonPlus RIL
T2 sequence (Q6CKI0 whole entry, the tested form may be a part): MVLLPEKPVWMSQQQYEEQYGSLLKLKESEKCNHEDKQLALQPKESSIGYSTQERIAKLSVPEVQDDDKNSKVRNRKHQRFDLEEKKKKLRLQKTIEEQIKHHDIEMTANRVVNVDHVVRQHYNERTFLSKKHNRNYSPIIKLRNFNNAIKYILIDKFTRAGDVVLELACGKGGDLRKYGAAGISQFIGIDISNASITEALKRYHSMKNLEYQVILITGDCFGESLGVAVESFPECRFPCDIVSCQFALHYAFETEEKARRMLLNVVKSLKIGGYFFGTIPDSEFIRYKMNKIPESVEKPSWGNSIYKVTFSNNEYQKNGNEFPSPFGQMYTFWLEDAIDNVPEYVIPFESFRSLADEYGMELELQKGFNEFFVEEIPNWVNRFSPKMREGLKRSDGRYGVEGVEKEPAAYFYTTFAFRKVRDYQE
Experimental: as §1
(§3) The quenched samples were thawed and centrifuged at 4000 × g at 4°C for 30 min to pellet denatured protein and the supernatants were transferred to a 96-well plate for analysis. Methylation was measured via HPLC with detection by MS conducted on an Agilent 1200 HPLC system coupled with a 6490 QQQ (Agilent Technologies). Assay samples were separated on an InfinityLab Poroshell 120 HILIC-Z column (2.1 mm × 100 mm, 2.7 μm particle size; Agilent Technologies) equilibrated in NH4Ac buffer [A: 10% 10 mM NH4Ac, pH 9.0, and 500 μM methylene diphosphonic acid/90% acetonitrile (ACN); B: 90% 10 mM NH4Ac, pH 9.0, and 500 μM methylene diphosphonic acid/10% ACN] with a flow rate 400 μl/min. The eluents of the column were directed to an electrospray ion source, connected to the QQQ. Samples were analyzed by the QQQ using multiple reaction monitoring (MRM) in negative mode, which measures peak intensities of the product ions of m^7GpppA (785: 408, 620 m/z) or m^7GTP (536.0: 159.0, 371.0 m/z) and the internal standard, L-tryptophan (203: 116, 141.9 m/z). The resultant peak intensities were then integrated. L-Tryptophan was used as an internal standard to perform cross-sample analysis. The m^7GpppA or m^7GTP product ion integrated intensities were normalized to the integrated ion intensity of L-tryptophan, yielding the ISTD. […] ISTDs obtained from reaction samples quenched at specified time points were then used to interpolate either m^7GpppA or m^7GTP concentrations using the calibration curves and used for quantification. […]

[3] = test system: S. cerevisiae abd1Δ pABD1* pSAM3 strains; assay: Spot test for growth of abd1Δ pSAM3 strains bearing ABD1 alleles on SFG-supplemented agar; format: cell-based, Saccharomyces cerevisiae; conditions: 30°C
Experimental: A library of PCR-mutated ABD1 alleles (ABD1*) in a CEN TRP1 plasmid under the control of the ABD1 promoter was constructed as described. The pABD1* library DNA was transfected into S. cerevisiae strain abd1Δ pABD1 (CEN URA3 ABD1) pSAM3 (2µ HIS3 SAM3). Trp^+ His^+ transformants were selected and then plated to agar medium containing 5-fluoroorotic acid (FOA) to counter-select against the CEN URA3 ABD1 plasmid. FOA survivors were plated to Trp- His- agar plates (25 ml) to which 300 µl of a 2.5 or 5 µM solution of SFG had been applied. Colonies that grew well on SFG-containing plates were candidates for harboring SFG-resistant ABD1* alleles. To ascertain whether SFG-resistance was linked to ABD1, the plasmids were recovered from individual SFG-resistant strains and amplified clonally by transformation in E. coli. The pABD1* plasmid DNAs isolated from E. coli were transfected into S. cerevisiae abd1Δ pABD1 (CEN URA3 ABD1) pSAM3 (2µ HIS3 SAM3) strain. Trp^+ His^+ transformants were selected and plated to FOA for counterselection against the CEN URA3 ABD1 plasmid. The resulting abd1Δ pABD1* (CEN TRP1 ABD1*) pSAM3 (2µ HIS3 SAM3) strains were tested in parallel with a control abd1Δ pABD1 (CEN TRP1 ABD1) pSAM3 (2µ HIS3 SAM3) strain for growth on Trp- His- agar plates (25 ml) supplemented with SFG (300 µl of 0.63, 1.25, 2.5 and 5 µM SFG per plate). […]

[4] = target: T3, ScAbd1-E124K-K163R-K311R-F387Y-Y416F (Saccharomyces cerevisiae, UniProt P32783, E124K/F387Y/K163R/K311R/Y416F); assay: Inhibition of GpppA methylation by ScAbd1-E124K-K163R-K311R-F387Y-Y416F; format: biochemical; conditions: ScAbd1-E124K-K163R-K311R-F387Y-Y416F 250 nM, 100 μM SAM, 250 μM GpppA, 30°C, 20 min
T3 construct: aa 1–436); made in house; host or cells: Escherichia coli BL21 (DE3) CodonPlus RIL
T3 sequence (P32783 whole entry E124K/K163R/K311R/F387Y/Y416F, the tested form may be a part): as the sequence (P32783 whole entry Y416A, the tested form may be a part) above, with E124K, K163R, K311R, F387Y, A416F counted along it
Experimental: as §1, §2

[5] = test system: S. cerevisiae strain complemented with the mammalian capping apparatus; design: method as in PMID 10347220; conditions: cited from earlier work
[6] = target: human cap guanine-N7 methyltransferase RNMT; conditions: cited from earlier work
[7] = test system: S. cerevisiae and an S. cerevisiae strain complemented with Candida albicans capping enzymes; design: method as in PMID 15964937, PMID 11035009; conditions: S. cerevisiae versus strain complemented with Candida albicans capping enzymes; cited from earlier work
[8] = test system: ScAbd1 variants L59P-Y416C, Y416N-R422H, E124K-K163R-K311R-F387Y-Y416F and Y416A; assay: Inhibition of GpppA methylation, the four SFG-resistant ScAbd1 variants stated together; format: biochemical, Saccharomyces cerevisiae; conditions: versus wild-type ScAbd1
Experimental: as §1, §2

[9] = test system: Ecm1; conditions: methylation of GTP by Ecm1 in the presence of 5 μM SAM; cited from earlier work
[10] = target: T4, ScAbd1WT (Saccharomyces cerevisiae, UniProt P32783); assay: Inhibition of GpppA methylation by wild-type ScAbd1 (LC-MS/MS assay); format: biochemical; conditions: for IC50: ScAbd1WT 250 nM, 100 μM SAM, 250 μM GpppA, 30°C, 20 min
T4 construct: aa 1–436); made in house; host or cells: Escherichia coli BL21 (DE3) CodonPlus RIL
T4 sequence (P32783 whole entry, the tested form may be a part): as the sequence (P32783 whole entry Y416A, the tested form may be a part) above, with A416Y counted along it
Experimental: as §1, §3

[11] = target: T5, ScAbd1-L59P-Y416C (Saccharomyces cerevisiae, UniProt P32783, L59P/Y416C); assay: Inhibition of GpppA methylation by ScAbd1-L59P-Y416C; format: biochemical; conditions: ScAbd1-L59P-Y416C 250 nM, 100 μM SAM, 250 μM GpppA, 30°C, 20 min
T5 construct: aa 1–436); made in house; host or cells: Escherichia coli BL21 (DE3) CodonPlus RIL
T5 sequence (P32783 whole entry L59P/Y416C, the tested form may be a part): as the sequence (P32783 whole entry Y416A, the tested form may be a part) above, with L59P, A416C counted along it
Experimental: as §1, §2

[12] = test system: recombinant S. cerevisiae Abd1; conditions: cited from earlier work
[13] = target: T6, ScAbd1-Y416N-R422H (Saccharomyces cerevisiae, UniProt P32783, R422H/Y416N); assay: Inhibition of GpppA methylation by ScAbd1-Y416N-R422H; format: biochemical; conditions: ScAbd1-Y416N-R422H 250 nM, 100 μM SAM, 250 μM GpppA, 30°C, 20 min; read-out: SAH IC50
T6 construct: aa 1–436); made in house; host or cells: Escherichia coli BL21 (DE3) CodonPlus RIL
T6 sequence (P32783 whole entry Y416N/R422H, the tested form may be a part): as the sequence (P32783 whole entry Y416A, the tested form may be a part) above, with A416N, R422H counted along it
Experimental: as §1, §2

For `Nc1ncnc2c1ncn2[C@@H]1O[C@H](C[C@@H](N)CC[C@H](N)C(=O)O)[C@@H](O)[C@H]1O` [SFG, sinefungin], the IC50 ([1]; read-out: SFG IC50) was 1470 ± 77 nM, the “potency of SFG versus SAH (ratio of the IC50 values)” value ([2]; KlAbd1, GpppA substrate) was 240 fold and the IC50 ([2]; read-out: apparent IC50 of SFG) was 52.1 ± 13.1 nM. The “SFG resistance of growth” value ([3]; single ABD1-Y416A mutation, abd1Δ pSAM3 (2μ HIS3 SAM3) strain background, agar) was “sufficed to confer SFG resistance”, the “sensitivity to growth inhibition by SFG” value ([3]; three ABD1* strains (L59P-Y416C, Y416N-R422H, E124K-K163R-K311R-F387Y-Y416F) versus isogenic wild-type ABD1, Trp- His- agar) was “less sensitive to growth inhibition by SFG than the isogenic wild-type ABD1 strain” and the IC50 ([4]; read-out: SFG IC50) was 1470 ± 67.7 nM. The “potency of growth inhibition relative to S. cerevisiae with fungal capping system” value [5] was “five-fold less potent”, the “IC50 of SFG lower than that of SAH” value [6] was 130 fold and the “potency of growth inhibition, comparison of the two strains” value [7] was “equal potency”. For the same compound, the “increase of the IC50 for SFG in the SFG-resistant mutants” value [8] was 20 fold, the IC50 [9] was 1500 nM and the IC50 ([10]; read-out: SFG IC50) was 65 nM and 65.1 nM. For the same compound, the “sensitivity/affinity for SFG versus SAH (ratio of IC50 values)” value ([10]; wild-type ScAbd1, GpppA substrate) was 485 fold, the IC50 ([11]; read-out: SFG IC50) was 1350 ± 69.9 nM and the IC50 ([12]; S. cerevisiae Abd1 in vitro, GpppA, read-out: apparent IC50 of SFG) was 24 nM. The “tighter binding of SFG than of SAM or SAH” value ([12]; ScAbd1) was “up to 900 fold” and the “potency of SFG versus SAH” value ([12]; methylation of GpppA by recombinant S. cerevisiae Abd1) was 900 fold.

Work on `Nc1ncnc2c1ncn2[C@@H]1O[C@H](CSCC[C@H](N)C(=O)O)[C@@H](O)[C@H]1O` [SAH, S-adenosylhomocysteine] yielded an IC50 [13] of 29700 ± 4700 nM, an IC50 ([1]; read-out: SAH IC50) of 16400 ± 2600 nM and an IC50 ([2]; read-out: IC50 of SAH) of 12300 ± 4100 nM. For the same compound, the IC50 ([4]; read-out: SAH IC50) was 35600 ± 2600 nM, the IC50 [9] was 4000 nM and the IC50 ([10]; read-out: SAH IC50) was 31600 ± 6800 nM. For the same compound, the IC50 ([11]; read-out: SAH IC50) was 33500 ± 2300 nM and the IC50 ([12]; methylation of GpppA by recombinant S. cerevisiae Abd1, read-out: IC50 of SAH) was 21000 nM.
